Test results reported in patent US8486965B2, “Pyrrolo[2,3-b]pyridine derivative and use thereof for treatment of cancer” (Takeda Pharmaceutical Company Limited, priority 2009, dated 2013).

System: Hedgehog signal transduction system (Smo)
Experiment: Gli reporter luciferase assay in NIH-3T3/Gli reporter cells stimulated with mouse Shh-N end fragment
Type: cell-based
Details: NIH3T3; 1 μM compound; NIH-3T3/Gli reporter cells with mouse Shh-N end fragment culture supernatant, 48 hr; luciferase activity, control without compound as 100; read-out: inhibition rate (%) at 1 μM
From the text: Inhibition of the Hedgehog signal transduction system can be measured, for example, by quantifying a decrease in the expression level of a reporter gene connected to the downstream of the Gli binding site based on the fluorescence intensity according to the following Experimental Example 1. Alternatively, it can be measured by quantifying the expression of Gli-1 mRNA in a cell extract by quantitative PCR method and the like. A compound that inhibits Hedgehog signal targets Smo, which can be confirmed, for example, by binding fluorescence-labeled Cyclopamine and a test compound to cells expressing Smo, measuring the fluorescence level of the cell, and comparing the value with that without addition of a test compound to find a decrease.
Gli reporter plasmid was constructed by inserting 8×Gli-binding site and chicken δ-crystalline promoter into the upstream of luc+ of pGL3 (Promega).
prepared in reference to the base sequence described in GenBank accession No.; X02187, and chicken genome DNA (Clontech) as a template. PCR reaction was performed using Pfu Turbo (Stratagene) and following the attached protocol. The obtained 108 bp fragment was digested with restriction enzymes BglII and HindIII, and inserted into BglII-HindIII site of pGL3 to give plasmid pGL3/δ-cry promoter.
As 8× Gli-binding site, a sequence containing eight 9-bp Gli bound consensus sequences (GACCACCCA) described in Yoon et al., J. Biol. Chem., vol. 273, pages 3496-3501 (1998) was prepared from synthetic DNA. That is, two synthetic DNAs,
were heat treated at 95° C. for 2 minutes, and incubated at 37° C. for 1 hr for annealing to give a double stranded DNA of the above-mentioned two synthetic DNAs. The obtained double stranded DNA was digested with restriction enzymes BglII and KpnI, and the obtained DNA fragment was inserted into BglII-KpnI site of pGL3/δ-cry promoter to construct plasmid pGL3/δ-cry promoter, 8× Gli binding site, i.e., Gli reporter plasmid. 2. Construction of Plasmid for Expression of Mouse Shh-N End Fragment
As a material for construction of plasmid for Shh-N end fragment expression, mouse Shh cDNA was cloned at first.
The mouse Shh cDNA was cloned by Nested PCR method using mouse 11-day fetus cDNA (Clontech) as a template. The primer sequence was prepared in reference to the base sequence described in GenBank accession No.; NM_009170.
Using the mouse Shh cDNA sequence obtained as mentioned above as a template, a partial cDNA sequence wherein stop codon (TGA) was added to 3′-terminal of cDNA sequence encoding 1st to 198th amino acid sequence of mouse Shh was obtained by PCR method. As the primer set,
In the manner mentioned above, a plasmid for mouse Shh-N end fragment expression, pcDNA3.1/mShh-N, was constructed.
HEK293 cells were grown in D-MEM medium (Invitrogen) containing 10% fetal bovine serum in a 10 cm dish and pcDNA3.1/mShh-N was introduced into the cells using FuGENE6 (Roche Applied Science). Thereafter, the HEK293 cells were cultured in a carbon dioxide gas incubator at 37° C. for 24 hours, and the medium was exchanged with D-MEM medium (Invitrogen) containing 2% fetal bovine serum. After culturing for 48 hr, culture supernatant containing recombinant type mouse Shh-N end fragment was obtained by filtration using a filter ([…]).
Using D-MEM (Invitrogen) containing 10% fetal bovine serum, expression plasmid pcDNA3:1 and Gli reporter plasmid (pGL3/δ-cry promoter, 8× Gli binding site) produced by the method of Experimental Example 1 were introduced into NIH-3T3 cells grown in a 10 cm dish by the use of FuGENE6 (Roche Applied Science).
After culture for 24 hr, the cells were recovered, suspended in D-MEM medium containing 10% fetal bovine serum and supplemented with Geneticin (Life Technologies Oriental, Inc.) to a final concentration of 500 μg/ml, diluted to 10^4 cells/ml, plated on a 96 well plate, and cultured in a carbon dioxide gas incubator at 37° C. to give Geneticin resistant transformed cell line. […]

Cc1nc2c(nc1NC(=O)c1ccccc1)c(OCC(F)(F)F)c(C(=O)NC1CCN(C(=O)CO)CC1)n2C [Example 145, N-[1-(hydroxyacetyl)piperidin-4-yl]-3,5-dimethyl-2-[(phenylcarbonyl)amino]-7-(2,2,2-trifluoroethoxy)-5H-pyrrolo[2,3-b]pyrazine-6-carboxamide]
inhibition at 1 µM: 98%

CCc1nc2c(cc1NC(=O)c1ccc(F)cc1)c(OCC(F)(F)F)c(C(=O)NC1CCN(C(=O)CO)CC1)n2C [Example 24, 6-ethyl-5-{[(4-fluorophenyl)carbonyl]amino}-N-[1-(hydroxyacetyl)piperidin-4-yl]-1-methyl-3-(2,2,2-trifluoroethoxy)-1H-pyrrolo[2,3-b]pyridine-2-carboxamide]
inhibition at 1 µM: 90%

CCc1cc2c(nc1-c1ccc(F)cc1)c(OC(C)C)c(C(=O)NC1CCN(C(=O)CO)CC1)n2C [Example 132, 6-ethyl-5-(4-fluorophenyl)-N-[1-(hydroxyacetyl)piperidin-4-yl]-1-methyl-3-(1-methylethoxy)-1H-pyrrolo[3,2-b]pyridine-2-carboxamide]
inhibition at 1 µM: 86%

CCc1nc2c(cc1NC(=O)c1ccccc1)c(OC(C)C)c(C(=O)NCCS(=O)(=O)CCOC)n2C [Example 60, 6-ethyl-N-{2-[(2-methoxyethyl)sulfonyl]ethyl}-1-methyl-3-(1-methylethoxy)-5-[(phenylcarbonyl)amino]-1H-pyrrolo[2,3-b]pyridine-2-carboxamide]
inhibition at 1 µM: 95%

CCc1nc2c(cc1NC(=O)c1ccccn1)c(OCC(F)(F)F)c(C(=O)NC1CCN(C(=O)CO)CC1)n2C [Example 42, 6-ethyl-N-[1-(hydroxyacetyl)piperidin-4-yl]-1-methyl-5-[(pyridin-2-ylcarbonyl)amino]-3-(2,2,2-trifluoroethoxy)-1H-pyrrolo[2,3-b]pyridine-2-carboxamide]
inhibition at 1 µM: 92%

Cc1nc2c(nc1-c1ccccc1)c(OC(C)C)c(C(=O)NC1CCN(C(=O)CO)CC1)n2C [Example 143, N-[1-(hydroxyacetyl)piperidin-4-yl]-3,5-dimethyl-7-(1-methylethoxy)-2-phenyl-5H-pyrrolo[2,3-b]pyrazine-6-carboxamide]
inhibition at 1 µM: 96%

CCc1nc2c(cc1NC(=O)c1ccccc1)c(OCC(F)(F)F)c(C(=O)NC1CCS(=O)(=O)CC1)n2C [Example 40, N-(1,1-dioxidotetrahydro-2H-thiopyran-4-yl)-6-ethyl-1-methyl-5-[(phenylcarbonyl)amino]-3-(2,2,2-trifluoroethoxy)-1H-pyrrolo[2,3-b]pyridine-2-carboxamide]
inhibition at 1 µM: 97%

CCc1nc2c(cc1NC(=O)c1cscn1)c(OCC(F)(F)F)c(C(=O)NC1CCN(C(=O)CO)CC1)n2C [Example 56, 6-ethyl-N-[1-(hydroxyacetyl)piperidin-4-yl]-1-methyl-5-[(1,3-thiazol-4-ylcarbonyl)amino]-3-(2,2,2-trifluoroethoxy)-1H-pyrrolo[2,3-b]pyridine-2-carboxamide]
inhibition at 1 µM: 97%

CCc1nc2c(nc1NC(=O)c1ccccc1)c(OCC(F)(F)F)c(C(=O)NC1CCN(C(=O)CO)CC1)n2C [Example 160, 3-ethyl-N-[1-(hydroxyacetyl)piperidin-4-yl]-5-methyl-2-[(phenylcarbonyl)amino]-7-(2,2,2-trifluoroethoxy)-5H-pyrrolo[2,3-b]pyrazine-6-carboxamide]
inhibition at 1 µM: 99%

CCc1cc2c(cc1NC(=O)c1ccsc1)c(OCC(F)(F)F)c(C(=O)NC1CCN(C(=O)CO)CC1)n2C [Example 147, 6-ethyl-N-[1-(hydroxyacetyl)piperidin-4-yl]-1-methyl-5-[(thiophen-3-ylcarbonyl)amino]-3-(2,2,2-trifluoroethoxy)-1H-indole-2-carboxamide]
inhibition at 1 µM: 91%

CCc1cc2sc(C(=O)NC3CCN(C(=O)CO)CC3)c(OC(C)C)c2cc1NC(=O)c1cccs1 [Example 153, 6-ethyl-N-[1-(hydroxyacetyl)piperidin-4-yl]-3-(1-methylethoxy)-5-[(thiophen-2-ylcarbonyl)amino]-1-benzothiophene-2-carboxamide]
inhibition at 1 µM: 97%

CCc1nc2c(cc1NC(=O)c1ccccc1)c(OCC(F)(F)F)c(C(=O)NC1CCN(C(=O)CO)CC1)n2C [Example 7, 6-ethyl-N-[1-(hydroxyacetyl)piperidin-4-yl]-1-methyl-5-[(phenylcarbonyl)amino]-3-(2,2,2-trifluoroethoxy)-1H-pyrrolo[2,3-b]pyridine-2-carboxamide]
inhibition at 1 µM: 96%

CCc1nc2c(cc1CC(=O)c1ccccc1)c(OCC(F)(F)F)c(C(=O)NC1CCN(C(=O)CO)CC1)n2C [Example 9, 6-ethyl-N-[1-(hydroxyacetyl)piperidin-4-yl]-1-methyl-5-(2-oxo-2-phenylethyl)-3-(2,2,2-trifluoroethoxy)-1H-pyrrolo[2,3-b]pyridine-2-carboxamide]
inhibition at 1 µM: 98%

Cc1nc2c(cc1NC(=O)c1ccc(F)cc1)c(OCC(F)(F)F)c(C(=O)NC1CCN(C(=O)CO)CC1)n2C [Example 48, 5-{[(4-fluorophenyl)carbonyl]amino}-N-[1-(hydroxyacetyl)piperidin-4-yl]-1,6-dimethyl-3-(2,2,2-trifluoroethoxy)-1H-pyrrolo[2,3-b]pyridine-2-carboxamide]
inhibition at 1 µM: 97%

CCc1nc2sc(C(=O)NC3CCN(C(=O)CO)CC3)c(OCC(F)(F)F)c2cc1NC(=O)c1ccc(F)cc1 [Example 58, 6-ethyl-5-{[(4-fluorophenyl)carbonyl]amino}-N-[1-(hydroxyacetyl)piperidin-4-yl]-3-(2,2,2-trifluoroethoxy)thieno[2,3-b]pyridine-2-carboxamide]
inhibition at 1 µM: 97%

Cc1nc2c(cc1NC(=O)c1ccccc1)c(OCC(F)(F)F)c(C(=O)NC1CCN(C(=O)CO)CC1)n2C [Example 47, N-[1-(hydroxyacetyl)piperidin-4-yl]-1,6-dimethyl-5-[(phenylcarbonyl)amino]-3-(2,2,2-trifluoroethoxy)-1H-pyrrolo[2,3-b]pyridine-2-carboxamide]
inhibition at 1 µM: 97%

CCc1nc2c(cc1NC(=O)c1ccc(OC)cc1)c(OCC(F)(F)F)c(C(=O)NC1CCN(C(=O)CO)CC1)n2C [Example 34, 6-ethyl-N-[1-(hydroxyacetyl)piperidin-4-yl]-5-{[(4-methoxyphenyl)carbonyl]amino}-1-methyl-3-(2,2,2-trifluoroethoxy)-1H-pyrrolo[2,3-b]pyridine-2-carboxamide]
inhibition at 1 µM: 93%

CCc1nc2c(nc1-c1ccccc1)c(OCC(F)(F)F)c(C(=O)NC1CCN(C(=O)CO)CC1)n2C [Example 144, 3-ethyl-N-[1-(hydroxyacetyl)piperidin-4-yl]-5-methyl-2-phenyl-7-(2,2,2-trifluoroethoxy)-5H-pyrrolo[2,3-b]pyrazine-6-carboxamide]
inhibition at 1 µM: 98%

CCc1nc2c(cc1NC(=O)c1cscc1OC)c(OC(C)C)c(C(=O)NC1CCN(C(=O)CO)CC1)n2C [Example 62, 6-ethyl-N-[1-(hydroxyacetyl)piperidin-4-yl]-5-{[(4-methoxythiophene-3-yl)carbonyl]amino}-1-methyl-3-(1-methylethoxy)-1H-pyrrolo[2,3-b]pyridine-2-carboxamide]
inhibition at 1 µM: 98%

CCc1nc2c(cc1NC(=O)c1ccccc1)c(OCC(F)(F)F)c(C(=O)NC1CC[S+]([O-])CC1)n2C (centres unmarked) [Example 41, 6-ethyl-1-methyl-N-(1-oxidotetrahydro-2H-thiopyran-4-yl)-5-[(phenylcarbonyl)amino]-3-(2,2,2-trifluoroethoxy)-1H-pyrrolo[2,3-b]pyridine-2-carboxamide]
inhibition at 1 µM: 96%
